Inconclusive results and toxic doses are left out. Cut-off read from the data, not from the text of the source: active = T/C of 150% or more; inactive = T/C below 125%.
Test system: L1210 leukemia ip in BDF1 mice, survival T/C
Assay: NCI In Vivo Anticancer Drug Screen. Data for tumor model L1210 Leukemia (intraperitoneal) in B6D2F1 (BDF1) mice
Settings: endpoint: mean survival time, higher = longer survival
How it was run: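 Read-out is survival time, reported as the treated-group measurement over the vehicle-control measurement.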

[1] = dose: 100.0 mg/kg/injection, schedule: Q04DX003 (ip), vehicle: saline
[2] = dose: 200.0 mg/kg/injection, schedule: Q04DX003 (ip), vehicle: saline

Measured: T/C

Cn1cnc2ncnn2c1=S
inactive: dose: 50.0 mg/kg/injection, schedule: Q01DX009 (ip), vehicle: saline 114 % of control | [1] 103 % of control | [2] 105 % of control

CCCCCCCCCCCCCCCCn1cnc2c(N)ncnc21
inactive: dose: 12.5 mg/kg/injection, schedule: Q01DX005 (ip), vehicle: other 104 % of control | dose: 25.0 mg/kg/injection, schedule: Q01DX005 (ip), vehicle: other 96 % of control | dose: 50.0 mg/kg/injection, schedule: Q01DX005 (ip), vehicle: other 101 % of control | dose: 100.0 mg/kg/injection, schedule: Q01DX005 (ip), vehicle: other 96 % of control | dose: 200.0 mg/kg/injection, schedule: Q01DX005 (ip), vehicle: other 95 % of control

CCCCOC(=O)C(C)(O)C(Cl)c1ccccc1 (stereo unspecified)
inactive: dose: 100.0 mg/kg/injection, schedule: Q04DX002 (ip), vehicle: saline 100 % of control | dose: 200.0 mg/kg/injection, schedule: Q04DX002 (ip), vehicle: saline 95 % of control | dose: 400.0 mg/kg/injection, schedule: Q04DX002 (ip), vehicle: saline 91 % of control

C1=NCCCN2CCCCC12 (stereo unspecified)
inactive: dose: 2.35 mg/kg/injection, schedule: Q01DX009 (ip), vehicle: Klucel (hydroxypropylcellulose) (HPC) 92 % of control | dose: 4.69 mg/kg/injection, schedule: Q01DX009 (ip), vehicle: Klucel (hydroxypropylcellulose) (HPC) 92 % of control | dose: 9.38 mg/kg/injection, schedule: Q01DX009 (ip), vehicle: Klucel (hydroxypropylcellulose) (HPC) 97 % of control | dose: 18.75 mg/kg/injection, schedule: Q01DX009 (ip), vehicle: Klucel (hydroxypropylcellulose) (HPC) 106 % of control

CNC(=O)c1cccc2c1-c1ccccc1C2=O
inactive: dose: 100.0 mg/kg/injection, schedule: Q01DX001 (ip), vehicle: other 91 % of control | dose: 200.0 mg/kg/injection, schedule: Q01DX001 (ip), vehicle: other 91 % of control | dose: 400.0 mg/kg/injection, schedule: Q01DX001 (ip), vehicle: other 91 % of control

CCn1cc(C(=O)O)c(=O)c2ccc3ccccc3c21
inactive: dose: 100.0 mg/kg/injection, schedule: Q04DX002 (ip), vehicle: Klucel (hydroxypropylcellulose) (HPC) 100 % of control | dose: 200.0 mg/kg/injection, schedule: Q04DX002 (ip), vehicle: Klucel (hydroxypropylcellulose) (HPC) 103 % of control | dose: 400.0 mg/kg/injection, schedule: Q04DX002 (ip), vehicle: Klucel (hydroxypropylcellulose) (HPC) 100 % of control

c1ccc(N/N=C(\c2ccccc2)c2ccccn2)cc1
inactive: dose: 100.0 mg/kg/injection, schedule: Q01DX001 (ip), vehicle: saline with Tween-80 105 % of control | dose: 200.0 mg/kg/injection, schedule: Q01DX001 (ip), vehicle: saline with Tween-80 94 % of control | dose: 400.0 mg/kg/injection, schedule: Q01DX001 (ip), vehicle: saline with Tween-80 94 % of control

CC[C@H](CC[C@@H](C)[C@H]1CC[C@H]2[C@@H]3CC=C4C[C@@H](OC(=O)CN5CCNCC5)CC[C@]4(C)[C@H]3CC[C@]12C)C(C)C
inactive: dose: 100.0 mg/kg/injection, schedule: Q01DX001 (ip), vehicle: water 98 % of control | dose: 100.0 mg/kg/injection, schedule: Q01DX009 (ip), vehicle: water 105 % of control | dose: 100.0 mg/kg/injection, schedule: Q04DX003 (ip), vehicle: water 100 % of control | dose: 200.0 mg/kg/injection, schedule: Q01DX001 (ip), vehicle: water 98 % of control | dose: 200.0 mg/kg/injection, schedule: Q01DX009 (ip), vehicle: water 89 % of control | dose: 200.0 mg/kg/injection, schedule: Q04DX003 (ip), vehicle: water 100 % of control | dose: 400.0 mg/kg/injection, schedule: Q01DX001 (ip), vehicle: water 91 % of control | dose: 400.0 mg/kg/injection, schedule: Q04DX003 (ip), vehicle: water 98 % of control

CN(C)c1ccc(/C=C2\C=Nc3ccccc32)cc1
inactive: dose: 100.0 mg/kg/injection, schedule: Q04DX003 (ip), vehicle: saline with Tween-80 87 % of control | dose: 200.0 mg/kg/injection, schedule: Q04DX003 (ip), vehicle: saline with Tween-80 87 % of control | dose: 400.0 mg/kg/injection, schedule: Q04DX003 (ip), vehicle: saline with Tween-80 87 % of control

CN(C)c1ncnc2[nH]cc([N+](=O)[O-])c12
inactive: dose: 100.0 mg/kg/injection, schedule: Q01DX001 (ip), vehicle: carboxymethylcellulose (CMC) 93 % of control | dose: 200.0 mg/kg/injection, schedule: Q01DX001 (ip), vehicle: carboxymethylcellulose (CMC) 93 % of control

C/C(=N\NC(=O)CCCCC(=O)N/N=C(\C)c1ccc(C)cc1)c1ccc(C)cc1
inactive: dose: 100.0 mg/kg/injection, schedule: Q01DX009 (ip), vehicle: Klucel (hydroxypropylcellulose) (HPC) 88 % of control | dose: 200.0 mg/kg/injection, schedule: Q01DX009 (ip), vehicle: Klucel (hydroxypropylcellulose) (HPC) 90 % of control | dose: 400.0 mg/kg/injection, schedule: Q01DX009 (ip), vehicle: Klucel (hydroxypropylcellulose) (HPC) 91 % of control

CCCCCCCCCCCCC/C=C\CC(CC(=O)O)C(=O)Nc1cccc2cnccc12 (stereo unspecified)
inactive: dose: 100.0 mg/kg/injection, schedule: Q04DX003 (ip), vehicle: Klucel (hydroxypropylcellulose) (HPC) 97 % of control | dose: 200.0 mg/kg/injection, schedule: Q04DX003 (ip), vehicle: Klucel (hydroxypropylcellulose) (HPC) 103 % of control | dose: 400.0 mg/kg/injection, schedule: Q04DX003 (ip), vehicle: Klucel (hydroxypropylcellulose) (HPC) 97 % of control

COC1/C=C\CC2=CCCC=C2CC1 (stereo unspecified)
inactive: dose: 50.0 mg/kg/injection, schedule: Q01DX009 (ip), vehicle: saline with Tween-80 112 % of control | dose: 100.0 mg/kg/injection, schedule: Q01DX009 (ip), vehicle: saline with Tween-80 123 % of control | dose: 200.0 mg/kg/injection, schedule: Q01DX009 (ip), vehicle: saline with Tween-80 105 % of control

C1CCCC(=[N+]2CCCC2)CCC1
inactive: dose: 100.0 mg/kg/injection, schedule: Q01DX009 (ip), vehicle: saline 100 % of control

Nc1ncnc2nc(-c3cc(Cl)c(OCc4ccccc4)c(Cl)c3)[nH]c12
inactive: dose: 100.0 mg/kg/injection, schedule: Q01DX001 (ip), vehicle: Klucel (hydroxypropylcellulose) (HPC) 100 % of control | dose: 200.0 mg/kg/injection, schedule: Q01DX001 (ip), vehicle: Klucel (hydroxypropylcellulose) (HPC) 89 % of control | dose: 400.0 mg/kg/injection, schedule: Q01DX001 (ip), vehicle: Klucel (hydroxypropylcellulose) (HPC) 92 % of control

c1ccc(C23c4ccccc4C2c2ccccc23)nc1 (stereo unspecified)
inactive: dose: 12.5 mg/kg/injection, schedule: Q01DX009 (ip), vehicle: gum acacia 104 % of control | dose: 25.0 mg/kg/injection, schedule: Q01DX009 (ip), vehicle: gum acacia 100 % of control | dose: 50.0 mg/kg/injection, schedule: Q01DX009 (ip), vehicle: gum acacia 100 % of control | dose: 100.0 mg/kg/injection, schedule: Q04DX003 (ip), vehicle: gum acacia 97 % of control | dose: 200.0 mg/kg/injection, schedule: Q04DX003 (ip), vehicle: gum acacia 97 % of control | dose: 400.0 mg/kg/injection, schedule: Q04DX003 (ip), vehicle: gum acacia 104 % of control

CC(=O)N(CCN(Cc1ccc(Oc2ccc([N+](=O)[O-])cc2[N+](=O)[O-])cc1)C(C)=O)CCN(Cc1ccc(Oc2ccc([N+](=O)[O-])cc2[N+](=O)[O-])cc1)C(C)=O
inactive: dose: 25.0 mg/kg/injection, schedule: Q01DX009 (ip), vehicle: other 102 % of control | dose: 50.0 mg/kg/injection, schedule: Q01DX009 (ip), vehicle: other 97 % of control | dose: 100.0 mg/kg/injection, schedule: Q01DX009 (ip), vehicle: other 96 % of control | dose: 200.0 mg/kg/injection, schedule: Q01DX009 (ip), vehicle: other 96 % of control | dose: 400.0 mg/kg/injection, schedule: Q01DX009 (ip), vehicle: other 93 % of control

OB(O)c1ccccc1
inactive: dose: 100.0 mg/kg/injection, schedule: Q01DX009 (ip), vehicle: gum acacia 105 % of control | dose: 200.0 mg/kg/injection, schedule: Q01DX009 (ip), vehicle: gum acacia 99 % of control

CN(C)CCOc1ncnc2nc[nH]c12
inactive: [1] 101 % of control | [2] 102 % of control | dose: 400.0 mg/kg/injection, schedule: Q04DX003 (ip), vehicle: saline 96 % of control

Source: PubChem BioAssay AID248 (DTP/NCI, 2004)
